Assay results reported in patent publication US20080300178A1, “Method For Treating Huntington's Disease by Inhibiting Dephosphorylation of Huntingtin at S421” (Insitut Curie, priority 2006, published 2008).
Entries after “also recorded” stand apart in the source; their conditions may differ.

What was measured:
[1] = molecular target: GST-huntingtin (amino acids 384 to 467 of human huntingtin fused to GST), phosphorylated at S421 by Akt (UniProt P42858)
[2] = tested on: endogenous huntingtin S421 phosphorylation; test: Phosphorylation of endogenous huntingtin at S421 in Jurkat T cells (Western blot); type: cell-based, human; settings: ionomycin 2.5 μM
Method: (§1) Cell culture, transfection and drug treatments. Primary cultures of striatal neurons were prepared from E17 Sprague Dawley rats and transfected at 4 days in vitro by a modified calcium phosphate technique (Saudou et al., 1998). Mouse neuronal cells derived from wildtype huntingtin mice (neuronal cells, +/+) and from Hdh^Q109 knock-in mice (109Q/109Q) were cultured as previously described (Trettel et al., 2000) and transfected with Lipofectamine 2000 (Invitrogen, Breda, The Netherlands). When cotransfected (FIG. 3A), the ratio 480-17Q/Akt/CaNA-ΔCaM/CaNB was 1:0.5:1:1. Human HEK 293 cells were cultured in DMEM supplemented with 10% bovine calf serum (BCS) and were transfected by the calcium phosphate technique. SHSY-5Y cells and Jurkat T cells were grown in RPMI supplemented with 10% BCS. Jurkat T cells were transferred to tyrodes buffer (137 mM NaCl, 3 mM KCl, 20 mM Hepes, 2 mM MgCl2, 1 mM CaCl2, 5.6 mM glucose, 0.3 mg/ml BSA; 4×10^6 cells/ml) prior addition of FK506 (1 μM) and/or ionomycin (2.5 μM).
(§2) Western blot analysis. After transfection/incubation with drugs, cells were washed with ice cold phosphate-buffered saline prior to scraping and lysis. […] Quantification of the signal was performed by densitometric scanning of the film using ImageJ software.

[3] = tested on: endogenous huntingtin S421 phosphorylation; test: Immunofluorescence of phospho-S421-huntingtin in SHSY-5Y cells transfected with wild-type CaNA/CaNB; type: cell-based, human; settings: 1 μM ionomycin, 15 min
Method: Immunofluorescence experiments. SHSY-5Y cells were grown on uncoated glass coverslips, transfected with wild-type CaNA/B for 24 hours and treated for 15 min with 1 μM ionomycin (Sigma) or left untreated. Cells were fixed with 4% paraformaldehyde-PHEM buffer for 20 min (in mM: PIPES, 120; HEPES, 50, EGTA, 20; Mg-acetate 4) and incubated with antiphospho-S421-huntingtin-763 (1:100) and anti-CaNA (1:200; Cat#C1956, Sigma) antibodies. Pictures were captured with a three-dimensional deconvolution imaging system as previously described (Gauthier et al., 2004). Mean fluorescence intensity of the phospho-S421 signal was next quantified using Metamorph software (Universal Imaging Corp, Princeton, N.J., USA). For each pair of cells (transfected/non transfected), signal from the transfected cell was standardized by giving a value of 100 to the non-transfected cell. Only non-mitotic cells of the same approximate size were considered. More than 30 cells in total were analyzed in two independent experiments.

[4] = tested on: BDNF-containing vesicles transport; test: BDNF-containing vesicle transport in primary cortical neurons expressing FL-htt-75Q (videomicroscopy); type: cell-based, rat; settings: IGF-1 treatment
Method: (§3) Videomicroscopy Experiments and Analyses. For videoexperiments rat primary cortical neurons, +/+, and 109Q/109Q cells established from Hdh^Q111 knock-in mouse were prepared, cultured and transfected as previously described (Gauthier et al., 2004; Humbert et al., 2002; Saudou et al., 1998; Trettel et al., 2000). In some cases, primary cultures of cortical neurons are electroporated with the rat neuron Nucleofector® kit according to the supplier's manual (Amaxa, Cologne). Forskolin ([…]; Sigma) and IBMX ([…]; Sigma) were added to the cultures 5 hours after transfection.
(§4) Videomicroscopy experiments were done two or four days after transfection. Cells were co-transfected with BDNF-eGFP and various constructs of htt or the corresponding empty vectors with a DNA ratio of 1:4. Live videomicroscopy was carried out using an imaging system previously detailed (Gauthier et al., 2004). Cells were grown on glass coverslip that was mounted in a Ludin chamber. The microscope and the chamber were kept at 37° C. (33° C. for knock-in cells). Stacks of 10-15 images with a Z-step of 0.3 μm were acquired with a 100× PlanApo N.A. 1.4 oil immersion objective coupled to a piezo device (PI). Images were collected in stream mode using a Cool Snap HQ camera (Ropper Scientific) set at 2×2 binning with an exposure time of 50 to 100 ms (frequency of 2). […]

[5] = tested on: BDNF-containing vesicles transport; test: BDNF-containing vesicle transport in 109Q/109Q cells (videomicroscopy); type: cell-based, mouse; settings: IGF-1 treatment
Method: as §3, §4

[6] = tested on: endogenous huntingtin S421 phosphorylation; test: Phosphorylation of S421 in primary striatal neurons (Western blot); type: cell-based; settings: rat striatal neurons, 1 μM FK506
Method: as §1, §2

[7] = molecular target: GST-huntingtin (amino acids 384 to 467 of human huntingtin fused to GST), before phosphorylation (UniProt P42858)
[8] = tested on: Parkinson's disease; settings: cited from earlier work

purified calcineurin (native protein isolated from bovine brain)
dephosphorylation of S421 (immunoblot with the anti-phospho-huntingtin-S421-763 antibody) [1]: calcineurin dephosphorylates S421 of huntingtin in vitro in a time and dose-dependent manner

C[C@H](CCC(=O)O)C[C@H](C)C[C@H](C)C(=O)/C=C(\O)[C@H](C)C[C@H](C)C/C=C/[C@@H](C)[C@@H](O)[C@@H](C)[C@@H](O)C[C@@H]1CC[C@@](C)([C@H]2CC[C@@](C)([C@@H](C)O)O2)O1 [ionomycin]
S421 phosphorylation after ionomycin [2]: rapid dephosphorylation of huntingtin on S421
huntingtin S421 phosphorylation (mean fluorescence intensity) [3]: reduction of huntingtin phosphorylation at S421
huntingtin S421 phosphorylation (mean fluorescence intensity) ([3]; listed as Ionomycin): decreased huntingtin S421 phosphorylation

IGF-1: IGF-1, activator of the IGF-1/Akt pathway
mean velocity of BDNF-containing vesicles [4]: statistically significant increase in the velocity of BDNF vesicles; also recorded: significantly increases the mean velocity
pausing time of BDNF-containing vesicles [4]: decreased the pausing time; also recorded: decreases their pausing time
pausing time of BDNF-containing vesicles [5]: decreasing pausing time; also recorded: decreases pausing time
velocity of BDNF-containing vesicles [5]: statistically increasing velocity; also recorded: increases velocity

C=CC[C@@H]1/C=C(\C)C[C@H](C)C[C@H](OC)[C@H]2O[C@@](O)(C(=O)C(=O)N3CCCC[C@H]3C(=O)O[C@H](/C(C)=C/[C@@H]3CC[C@@H](O)[C@H](OC)C3)[C@H](C)[C@@H](O)CC1=O)[C@H](C)C[C@@H]2OC [FK506]
time for which S421 phosphorylation remained sustained [6]: at least 6 hours

recombinant Akt
phosphorylation of S421 (in vitro kinase assay, immunoblot) [7]: resulting in the phosphorylation of GST-huntingtin at S421

CCC(C)(C)C(=O)C(=O)N1CCC[C@H]1C(=O)OCCCc1cccnc1 [GPI-1046]
outcome of clinical trials [8]: have failed
